In the NIST ThermoML archive (doi:10.1021/je400472v):
± gives the expanded uncertainty stated by the source.

Test: mean ionic activity coefficient (dimensionless); mn = molality of the nth substance listed, in mol/kg
Settings: 101 kPa, Liquid

[Cl-].[Cl-].[Sr+2] [strontium chloride] + O
Settings | mean ionic activity coefficient
283.15 K, m1 = 0.01 | 0.732 ± 0.001
283.15 K, m1 = 0.02 | 0.668 ± 0.001
283.15 K, m1 = 0.05 | 0.58 ± 0.001
283.15 K, m1 = 0.1 | 0.519 ± 0.001
283.15 K, m1 = 0.2 | 0.47 ± 0.001
283.15 K, m1 = 0.3 | 0.45 ± 0.001
293.15 K, m1 = 0.01 | 0.728 ± 0.001
293.15 K, m1 = 0.02 | 0.663 ± 0.001
293.15 K, m1 = 0.05 | 0.575 ± 0.001
293.15 K, m1 = 0.1 | 0.513 ± 0.001
293.15 K, m1 = 0.2 | 0.464 ± 0.001
293.15 K, m1 = 0.3 | 0.444 ± 0.001
298.15 K, m1 = 0.01 | 0.726 ± 0.001
298.15 K, m1 = 0.02 | 0.661 ± 0.001
298.15 K, m1 = 0.05 | 0.571 ± 0.001
298.15 K, m1 = 0.1 | 0.509 ± 0.001
298.15 K, m1 = 0.2 | 0.459 ± 0.001
298.15 K, m1 = 0.3 | 0.439 ± 0.001
298.15 K, m1 = 0.4 | 0.43 ± 0.001
298.15 K, m1 = 0.5 | 0.428 ± 0.001
298.15 K, m1 = 0.6 | 0.43 ± 0.001
298.15 K, m1 = 0.7 | 0.435 ± 0.001
298.15 K, m1 = 0.8 | 0.442 ± 0.001
298.15 K, m1 = 0.9 | 0.451 ± 0.001
298.15 K, m1 = 1 | 0.462 ± 0.001
298.15 K, m1 = 1.2 | 0.489 ± 0.001
298.15 K, m1 = 1.4 | 0.522 ± 0.001
298.15 K, m1 = 1.6 | 0.562 ± 0.001
298.15 K, m1 = 1.8 | 0.609 ± 0.001
298.15 K, m1 = 2 | 0.665 ± 0.001
298.15 K, m1 = 2.5 | 0.849 ± 0.001
298.15 K, m1 = 3 | 1.12 ± 0.001
298.15 K, m1 = 3.5 | 1.524 ± 0.001
298.15 K, m1 = 3.52 | 1.544 ± 0.001
303.15 K, m1 = 0.01 | 0.724 ± 0.001
303.15 K, m1 = 0.02 | 0.658 ± 0.001
303.15 K, m1 = 0.05 | 0.569 ± 0.001
303.15 K, m1 = 0.1 | 0.507 ± 0.001
303.15 K, m1 = 0.2 | 0.457 ± 0.001
303.15 K, m1 = 0.3 | 0.437 ± 0.001
313.15 K, m1 = 0.01 | 0.72 ± 0.001
313.15 K, m1 = 0.02 | 0.653 ± 0.001
313.15 K, m1 = 0.05 | 0.563 ± 0.001
313.15 K, m1 = 0.1 | 0.5 ± 0.001
313.15 K, m1 = 0.2 | 0.45 ± 0.001
313.15 K, m1 = 0.3 | 0.429 ± 0.001
323.15 K, m1 = 0.01 | 0.715 ± 0.001
323.15 K, m1 = 0.02 | 0.648 ± 0.001
323.15 K, m1 = 0.05 | 0.556 ± 0.001
323.15 K, m1 = 0.1 | 0.493 ± 0.001
323.15 K, m1 = 0.2 | 0.442 ± 0.001
323.15 K, m1 = 0.3 | 0.421 ± 0.001
333.15 K, m1 = 0.01 | 0.71 ± 0.001
333.15 K, m1 = 0.02 | 0.642 ± 0.001
333.15 K, m1 = 0.05 | 0.549 ± 0.001
333.15 K, m1 = 0.1 | 0.485 ± 0.001
333.15 K, m1 = 0.2 | 0.434 ± 0.001
333.15 K, m1 = 0.3 | 0.413 ± 0.001
